Series [1] is described as follows: Liver microsomal incubations. In kind it is in vitro ADME. As to conditions: human liver microsomes, 25 μM, NADPH.
Procedure: All liver microsome incubations were carried out in 50 mM potassium phosphate buffer at pH 7.4, with a final microsomal protein concentration of 0.5 mg/mL. […] In brief, compounds were added to the incubation buffer along with the liver microsomes and incubated at 37° C. for 10 minutes. The reaction was then initiated by the addition of NADPH, previously dissolved in incubation buffer, to give a final concentration of 1 mM and re-incubated at 37° C. Aliquots were removed at 2 and 60 minutes and quenched with an equal volume of cold acetonitrile. After mixing vigorously, the precipitated protein matter was removed by filtration (Multiscreen Solvinert filter plates, Millipore, Bedford, Mass., USA) and the filtrate analysed by reverse phase HPLC with mass spectrometric detection, using single ion monitoring of the [M+H]^+ species. Metabolic turnover was determined by comparison of peak areas from the ion chromatograms of the parent compound at 2 and 60 minutes and expressed as percent remaining at 1 hour.
Series [2] can be described thus: Plasma incubations. The series is classed as in vitro ADME. As to conditions: 37° C., 25 μM.
Procedure: Aliquots were removed at 2 and 60 minutes and quenched with an equal volume of cold acetonitrile. After mixing vigorously, the precipitated protein matter was removed by filtration (Multiscreen Solvinert filter plates, Millipore, Bedford, Mass., USA) and the filtrate analysed by reverse phase HPLC with mass spectrometric detection, using single ion monitoring of the [M+H]^+ species. Metabolic turnover was determined by comparison of peak areas from the ion chromatograms of the parent compound at 2 and 60 minutes and expressed as percent remaining at 1 hour.
Series [3] relates to human osteoclasts. As to conditions: human osteoclast, literature value; cited from earlier work.

In the case of `CC(C)C[C@H](NC(=O)c1ccc(C(C)(C)C)cc1)C(=O)N1CC[C@H]2OCC(=O)[C@H]21` [prior art compound 23, reference compound], the “HLM % rem. @ 1 h” value in series [1] is reported as 70%. Also, in series [2], the “Human Plasma Stability % rem. @ 1 h” value is 75%. Also, the “Cell-based % Inh. @ 1 μM Human (Lit.)” value in series [3] is given as “Lit. 60%”.

Source of the values: patent US7846935B2, “Furo[3,2-B]pyrrol-3-one derivatives and their use as cysteinyl proteinase inhibitors” (Amura Therapeutics Limited, priority 2006, dated 2010).
